Tests used:
Assay type in all cases: cell-based
[1] = test system: SN12C; assay: NCI 60 human tumor cell line screen (SRB): SN12C; conditions: Renal, 48 hours, read-out: GI50 values (μM conc.)
Method: (§1) The in vitro anticancer activity studies for these chalcone analogues were carried out at the National Cancer Institute, USA.
(§2) The chalcone compounds have been tested at NCI, USA, against sixty human tumor cell lines derived from nine cancer types (leukemia, non-small cell lung cancer, colon cancer, CNS cancer, melanoma cancer, ovarian cancer, renal cancer, prostate cancer and breast cancer). For these compounds results are expressed as growth inhibition (GI50) values as per NCI protocol.
(§3) We describe here the development and implementation of a pilot-scale, in vitro, anticancer drug screen utilizing a panel of 60 human tumor cell lines organized into subpanels representing leukemia, melanoma, and cancers of the lung, colon, kidney, ovary, and central nervous system. The ultimate goal of this disease-oriented screen is to facilitate the discovery of new compounds with potential cell line-specific and/or subpanel-specific antitumor activity. In the current screening protocol, each cell line is inoculated onto microtiter plates, then preincubated for 28 hours. Subsequently, test agents are added in five 10-fold dilutions and the culture is incubated for an additional 48 hours. For each test agent, a dose-response profile is generated. End-point determinations of the cell viability or cell growth are performed by in situ fixation of cells, followed by staining with a protein-binding dye, sulforhodamine B (SRB). The SRB binds to the basic amino acids of cellular macromolecules; the solubilized stain is measured spectrophotometrically to determine relative cell growth or viability in treated and untreated cells.

[2] = test system: T-47D; assay: NCI 60 human tumor cell line screen (SRB): T-47D; conditions: T47D, Breast, 48 hours, read-out: GI50 values (μM conc.)
Method: as §1, §2, §3

[3] = test system: HOP-92; assay: NCI 60 human tumor cell line screen (SRB): HOP-92; conditions: HOP-92, Non-small cell lung, 48 hours, read-out: GI50 values (μM conc.)
Method: as §1, §2, §3

[4] = test system: SNB-19; assay: NCI 60 human tumor cell line screen (SRB): SNB-19; conditions: SNB-19, CNS, 48 hours, read-out: GI50 values (μM conc.)
Method: as §1, §2, §3

[5] = test system: SK-MEL-2; assay: NCI 60 human tumor cell line screen (SRB): SK-MEL-2; conditions: SK-MEL-2, Melanoma, 48 hours, read-out: GI50 values (μM conc.)
Method: as §1, §2, §3

[6] = test system: MALME-3M; assay: NCI 60 human tumor cell line screen (SRB): MALME-3M; conditions: Melanoma, 48 hours, read-out: GI50 values (μM conc.)
Method: as §1, §2, §3

[7] = test system: SW-620; assay: NCI 60 human tumor cell line screen (SRB): SW-620; conditions: SW-620, Colon, 48 hours, read-out: GI50 values (μM conc.)
Method: as §1, §2, §3

[8] = test system: SF-295; assay: NCI 60 human tumor cell line screen (SRB): SF-295; conditions: SF-295, CNS, 48 hours, read-out: GI50 values (μM conc.)
Method: as §1, §2, §3

[9] = test system: HL-60(TB); assay: NCI 60 human tumor cell line screen (SRB): HL-60(TB); conditions: Leukemia, 48 hours, read-out: GI50 values (μM conc.)
Method: as §1, §2, §3

[10] = test system: MDA-MB-468; assay: NCI 60 human tumor cell line screen (SRB): MDA-MB-468; conditions: MDA-MB-468, Breast, 48 hours, read-out: GI50 values (μM conc.)
Method: as §1, §2, §3

[11] = test system: HCC-2998; assay: NCI 60 human tumor cell line screen (SRB): HCC-2998; conditions: HCC-2998, Colon, 48 hours, read-out: GI50 values (μM conc.)
Method: as §1, §2, §3

[12] = test system: NCI-H23; assay: NCI 60 human tumor cell line screen (SRB): NCI-H23; conditions: NCI-H23, Non-small cell lung, 48 hours, read-out: GI50 values (μM conc.)
Method: as §1, §2, §3

[13] = test system: KM12; assay: NCI 60 human tumor cell line screen (SRB): KM12; conditions: KM12, Colon, 48 hours, read-out: GI50 values (μM conc.)
Method: as §1, §2, §3

[14] = test system: HCT-15; assay: NCI 60 human tumor cell line screen (SRB): HCT-15; conditions: HCT-15, Colon, 48 hours, read-out: GI50 values (μM conc.)
Method: as §1, §2, §3

[15] = test system: SR; assay: NCI 60 human tumor cell line screen (SRB): SR; conditions: Leukemia, 48 hours, read-out: GI50 values (μM conc.)
Method: as §1, §2, §3

[16] = test system: HS 578T; assay: NCI 60 human tumor cell line screen (SRB): HS 578T; conditions: Breast, 48 hours, read-out: GI50 values (μM conc.)
Method: as §1, §2, §3

[17] = test system: HCT-116; assay: NCI 60 human tumor cell line screen (SRB): HCT-116; conditions: HCT-116, Colon, 48 hours, read-out: GI50 values (μM conc.)
Method: as §1, §2, §3

[18] = test system: MDA-MB-435; assay: NCI 60 human tumor cell line screen (SRB): MDA-MB-435; conditions: MDA-MB-435, Melanoma, 48 hours, read-out: GI50 values (μM conc.)
Method: as §1, §2, §3

[19] = test system: UO-31; assay: NCI 60 human tumor cell line screen (SRB): UO-31; conditions: UO-31, Renal, 48 hours, read-out: GI50 values (μM conc.)
Method: as §1, §2, §3

[20] = test system: SK-OV-3; assay: NCI 60 human tumor cell line screen (SRB): SK-OV-3; conditions: SK-OV-3, Ovarian, 48 hours, read-out: GI50 values (μM conc.)
Method: as §1, §2, §3

[21] = test system: U251; assay: NCI 60 human tumor cell line screen (SRB): U251; conditions: U-251, U251, CNS, 48 hours, read-out: GI50 values (μM conc.)
Method: as §1, §2, §3

[22] = test system: CAKI-1; assay: NCI 60 human tumor cell line screen (SRB): CAKI-1; conditions: CAKI-1, Renal, 48 hours, read-out: GI50 values (μM conc.)
Method: as §1, §2, §3

[23] = test system: HOP-62; assay: NCI 60 human tumor cell line screen (SRB): HOP-62; conditions: HOP-62, Non-small cell lung, 48 hours, read-out: GI50 values (μM conc.)
Method: as §1, §2, §3

[24] = test system: A549/ATCC; assay: NCI 60 human tumor cell line screen (SRB): A549/ATCC; conditions: Non-small cell lung, 48 hours, read-out: GI50 values (μM conc.)
Method: as §1, §2, §3

[25] = test system: SNB-75; assay: NCI 60 human tumor cell line screen (SRB): SNB-75; conditions: SNB-75, CNS, 48 hours, read-out: GI50 values (μM conc.)
Method: as §1, §2, §3

[26] = test system: SK-MEL-28; assay: NCI 60 human tumor cell line screen (SRB): SK-MEL-28; conditions: SK-MEL-28, Melanoma, 48 hours, read-out: GI50 values (μM conc.)
Method: as §1, §2, §3

[27] = test system: BT-549; assay: NCI 60 human tumor cell line screen (SRB): BT-549; conditions: BT-549, Breast, 48 hours, read-out: GI50 values (μM conc.)
Method: as §1, §2, §3

[28] = test system: PC-3; assay: NCI 60 human tumor cell line screen (SRB): PC-3; conditions: PC-3, Prostate, 48 hours, read-out: GI50 values (μM conc.)
Method: as §1, §2, §3

[29] = test system: MOLT-4; assay: NCI 60 human tumor cell line screen (SRB): MOLT-4; conditions: MOLT-4, Leukemia, 48 hours, read-out: GI50 values (μM conc.)
Method: as §1, §2, §3

Row | Structure (SMILES) | GI50 [1] [µM] | GI50 [2] [µM] | GI50 [3] [µM] | GI50 [4] [µM] | GI50 [5] [µM] | GI50 [6] [µM] | GI50 [7] [µM] | GI50 [8] [µM] | GI50 [9] [µM] | GI50 [10] [µM] | GI50 [11] [µM] | GI50 [12] [µM] | GI50 [13] [µM] | GI50 [14] [µM] | GI50 [15] [µM] | GI50 [16] [µM] | GI50 [17] [µM] | GI50 [18] [µM] | GI50 [19] [µM] | GI50 [20] [µM] | also measured
1 | COc1cc(C(=O)/C=C/c2cccnc2Nc2ccccc2)cc(OC)c1OC [6a, (E)-3-(2-(Phenylamino)pyridin-3-yl)-1-(3,4,5-trimethoxyphenyl)prop-2-en-1-one] | 1.21 | 1.43 | 0.39 | 1.48 | 1.66 | 1.92 | 0.42 | 1.87 | 1.52 | 0.66 | 1.18 | 1.43 | 0.92 | 0.74 | 0.34 | 2.15 | 0.33 | 0.63 | 1.19 | 1.6 | GI50 [21]: 1.12 µM; GI50 [22]: 1.16 µM; GI50 [23]: 0.65 µM; GI50 [24]: 1.3 µM; GI50 [25]: 1.13 µM; GI50 [26]: 1.58 µM; GI50 [27]: 1.26 µM; GI50 [28]: 1.1 µM; GI50 [29]: 2.68 µM
2 | COc1cc(Nc2ncccc2/C=C/C(=O)c2cc(OC)c(OC)c(OC)c2)cc(OC)c1OC [6v, (E)-1-(3,4,5-Trimethoxyphenyl)-3-(2-(3,4,5-trimethoxyphenylamino)pyridin-3-yl)prop-2-en-1-one] | 5.1 | 5.3 | 0.94 | 6.8 | 8 | 15.3 | 4.81 | 4.92 | 8 | 6.78 | 7.74 | 10.2 | 6.5 | 5.02 | 3.6 | 13.2 | 3.77 | 5.63 | 5.09 | 11.1 | GI50 [21]: 4.1 µM; GI50 [22]: 4.01 µM; GI50 [23]: 12.1 µM; GI50 [24]: 4.21 µM; GI50 [25]: 4.12 µM; GI50 [26]: 5.43 µM; GI50 [27]: 14.3 µM; GI50 [28]: 7.81 µM; GI50 [29]: 6.72 µM
